From patent publication US20250109140A1, “5-[5-(PIPERIDIN-4-YL)THIENO[3,2-C]PYRAZOL-2-YL]INDAZOLE DERIVATIVES AND RELATED COMPOUNDS AS MODULATORS FOR SPLICING NUCLEIC ACIDS AND FOR THE TREATMENT OF PROLIFERATIVE DISEASES” (REMIX THERAPUTICS INC., priority 2022, published 2025)
Read-outs that look alike come from different tables or passages of the source.

Assays:
[1] = system: HiBiT-tagged HTT protein; test: HiBiT protein abundance assay, HTT (K562 HiBiT knock-in cells); type: cell-based, human; details: 24 hours treatment
Procedure: (§1) Compounds described herein were used to screen for effects on quantitative protein abundance using a HiBit assay system (Promega). Quantitative protein abundance was determined by measuring the protein levels of HiBit-tagged protein targets expressed in cell culture via luminescence using the Nano-Glo HiBiT Lytic Detection System, which uses a split complementation assay format to reconstitute NanoBiT enzyme to generate a luminescent signal. A protein abundance assay was developed such that endogenous protein targets could be modified with the HiBiT peptide tag and their abundance could be assessed after compound treatment. Briefly, K562 cell lines containing a HiBiT-modification were treated with various compounds described herein (e.g., compounds of Formulas (I), or (II)). After treatment for 24 hours, the protein abundance of a specific target was determined by measuring luminescence.
(§2) Cells were maintained in IMDM with 10% FBS. Before the assay, cells were diluted with […] growth media (IMDM+[…] media) and were seeded in a 384-well plate at a density of 10000 cells/well (for each cell line listed in Table 6). Each compound was prepared as a 10-point 3-fold serial dilution in DMSO with the top dose at a final concentration of […] in the well. Unmodified K562 cells were added at the previously specified density with DMSO to serve as an assay baseline and positive control (PC) and DMSO only with the respective modified cell lines was added to the negative control (NC) columns. Final DMSO concentration was kept at or below 0.25%. Treated cell plates were placed in an incubator at 37° C. with […] for 24 hours. After 24 hours, 25 μL of Complete HiflitLytic reagent was added to each well at room temperature (e.g. one plate requiring 10 mL Lytic Buffer, 100 μL LgBiT Protein, 200 μL Lytic Substrate), shaken for 5 minutes at 600 RPM, then left to sit for 10 minutes for signal to stabilize before reading on a Spark Cyto plate reader (Tecan) with a 500 ms measurement time.
(§3) To determine compound effects on protein abundance of each target in Table 6, the percent response for each respective cell line was calculated at each compound concentration as follows:
(§4) For the normalized response at each concentration, a four-parameter logistical regression was fit to the data and the response was interpolated at the 50% value to determine a concentration for protein abundance at 50% (IC50) the untreated control.

[2] = system: Target C; test: HiBiT protein abundance assay, Target C (K562 HiBiT knock-in cells); type: cell-based, human; details: 24 hours treatment
Procedure: • Promega Nano-Glo HiBiT Lytic Detection System (cat #N3030) • Corning 384-well TC-treated microplates (cat #3570) • Synthego Engineered Cells Knock-In Clones
as §2, §3, §4

[3] = system: Target C mRNA; test: Splicing RT-qPCR gene panel, Target C canonical junction (CJ) mRNA; type: cell-based; details: Homo sapiens; Table 8; larger gene panel, decrease in CJ mRNA levels
Outline: (§5)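 A673 or K562 cells were exposed for 24 h at 37 °C to an 11-point 3-fold dilution series (top 10 uM final, DMSO ≤0.25%). Lysates were analysed by one-step RT-qPCR for canonical (CJ) and alternative (AJ) junctions. Values were normalized to GAPDH, GUSB or PPIA and to DMSO (ΔΔCt), then converted to percentage response.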

[4] = system: HiBiT-tagged MYB protein; test: HiBiT protein abundance assay, MYB (K562 HiBiT knock-in cells); type: cell-based, human; details: 24 hours treatment
Procedure: as §1, §2, §3, §4

[5] = system: HTT mRNA; test: Splicing RT-qPCR assay, HTT canonical (CJ) and alternative (AJ) junction mRNA; type: cell-based; details: Homo sapiens; for EC50: AC50 = 50% response in AJ mRNA increase
Outline: as §5

[6] = system: SMN2 mRNA; test: Splicing RT-qPCR gene panel, SMN2 canonical junction (CJ) mRNA; type: cell-based; details: Homo sapiens; Table 8; larger gene panel, decrease in CJ mRNA levels
Outline: as §5

[7] = system: MYB mRNA; test: Splicing RT-qPCR assay, MYB canonical (CJ) and alternative (AJ) junction mRNA; type: cell-based; details: Homo sapiens; for EC50: AC50 = 50% response in AJ mRNA increase
Outline: as §5

[8] = system: K562 (human chronic myelogenous leukemia) cells; test: Cell viability, Cell Titer Glo 2.0 assay, K562 cells; type: cell-based; details: 72 hours
Procedure: Compounds described herein were screened for toxicity in K562 (human chronic myelogenous leukemia) and SH-SY5Y (human neuroblastoma) cells using a Cell Titer Glo 2.0 assay.
Cells were plated at 500 cells/well (K562 cells) in 45 μL of IMDM supplemented with 10% FBS in a 384-well opaque plate. Wells containing only medium were used as a blank control. Test compounds (e.g., compounds of Formula (I), (III), (IV), (V), or (VI)) were first serially diluted in DMSO then diluted 1:100 with IMDM+10% FBS. The final concentration of DMSO was 0.1% in each well. The cells were incubated for 72 hours at 37° C. and 5% CO2 before assaying with Cell Titer Glo 2.0 reagent.

[9] = Table 7, RT-qPCR, A673 or K562 cells, 24 hours treatment
[10] = Table 7, IC50 = 50% response in CJ mRNA decrease, RT-qPCR, A673 or K562 cells, 24 hours treatment, read-out: HTT CJ
[11] = Table 8, larger gene panel, decrease in CJ mRNA levels, read-out: HTT CJ IC50
[12] = Table 7, IC50 = 50% response in CJ mRNA decrease, RT-qPCR, A673 or K562 cells, 24 hours treatment, read-out: MYB CJ
[13] = Table 8, larger gene panel, decrease in CJ mRNA levels, read-out: MYB CJ IC50

## Cn1cc2cc(-c3cc4nn(C5CCNCC5)cc4s3)cc(F)c2n1 [Compound 121, 7-fluoro-2-methyl-5-[2-(piperidin-4-yl)thieno[3,2-c]pyrazol-5-yl]indazole]
[1]
  IC50: < 0.1 µM
[2]
  IC50: < 0.1 µM
[3]
  IC50: < 0.1 µM
[4]
  IC50: 0.1 to 1 µM
[5]; [9]
  EC50: 0.1 to 1 µM
[5]; [10]
  IC50: < 0.1 µM
[5]; [11]
  IC50: 0.1 to 1 µM
[6]
  IC50: < 0.1 µM
[7]; [9]
  EC50: 0.1 to 1 µM
[7]; [12]
  IC50: 0.1 to 1 µM
[7]; [13]
  IC50: 0.1 to 1 µM

## Cc1cn2cc(-n3cc4sc(C5CCNCC5)cc4n3)cc(C)c2n1 [Compound 173]
[3]
  IC50: > 10 µM
[8]
  IC50: 1 to 10 µM
[5]; [9]
  EC50: 1 to 10 µM
[5]; [10]
  IC50: 1 to 10 µM
[5]; [11]
  IC50: 1 to 10 µM
[6]
  IC50: 1 to 10 µM
[7]; [9]
  EC50: > 10 µM
[7]; [12]
  IC50: > 10 µM
[7]; [13]
  IC50: > 10 µM

## Cc1cc(-c2cc3cn([C@H]4CCNC[C@H]4F)nc3s2)cc2cn(C)nc12 (single isomer, unassigned) [Compound 245]
[3]
  IC50: 1 to 10 µM
[5]; [9]
  EC50: 0.1 to 1 µM
[5]; [10]
  IC50: 0.1 to 1 µM
[5]; [11]
  IC50: 0.1 to 1 µM
[6]
  IC50: 0.1 to 1 µM
[7]; [9]
  EC50: 1 to 10 µM
[7]; [12]
  IC50: 1 to 10 µM
[7]; [13]
  IC50: 1 to 10 µM

## Cc1cn2nc(-n3cc4cc(C5CCNCC5)sc4n3)cc(C)c2n1 [Compound 110, 4-(2-[2,8-dimethylimidazo[1,2-b]pyridazin-6-yl]thieno[2,3-c]pyrazol-5-yl) piperidine]
[1]
  IC50: 1 to 10 µM
[2]
  IC50: 1 to 10 µM
[8]
  IC50: 1 to 10 µM
[4]
  IC50: 1 to 10 µM
[5]; [9]
  EC50: 0.1 to 1 µM
[5]; [10]
  IC50: 0.1 to 1 µM
[5]; [11]
  IC50: 0.1 to 1 µM
[6]
  IC50: < 0.1 µM
[7]; [9]
  EC50: 0.1 to 1 µM
[7]; [12]
  IC50: 1 to 10 µM
[7]; [13]
  IC50: 0.1 to 1 µM

## CN1CCCC2(CCN2c2cc3sc(-c4cc(F)c5nn(C)cc5c4)nc3s2)C1 (stereo not shown) [Compound 203, 1-[2-(7-fluoro-2-methylindazol-5-yl)thieno[2,3-d][1,3]thiazol-5-yl]-6-methyl-1,6-diazaspiro[3.5]nonane]
[3]
  IC50: > 10 µM
[5]; [9]
  EC50: > 10 µM
[5]; [10]
  IC50: > 10 µM
[5]; [11]
  IC50: > 10 µM
[6]
  IC50: 1 to 10 µM
[7]; [9]
  EC50: > 10 µM
[7]; [12]
  IC50: > 10 µM
[7]; [13]
  IC50: > 10 µM

## Cc1cn2cc(-c3nc4sc(C5CCNCC5)cc4s3)nc2c(C)n1 [Compound 239, 4-(2-{6,8-dimethylimidazo[1,2-a]pyrazin-2-yl}thieno[2,3-d][1,3]thiazol-5-yl)piperidine]
[3]
  IC50: 1 to 10 µM
[5]; [9]
  EC50: 1 to 10 µM
[5]; [10]
  IC50: 0.1 to 1 µM
[5]; [11]
  IC50: 1 to 10 µM
[6]
  IC50: 0.1 to 1 µM
[7]; [9]
  EC50: 1 to 10 µM
[7]; [12]
  IC50: 1 to 10 µM
[7]; [13]
  IC50: 1 to 10 µM

## Cn1cc2cc(-c3nc4sc(N5CCC56CCNC6)cc4s3)cc(F)c2n1 (stereo not shown) [Compound 200, 5-(5-{1,6-diazaspiro[3.4]octan-1-yl}thieno[2,3-d][1,3]thiazol-2-yl)-7-fluoro-2-methy-lindazole]
[3]
  IC50: > 10 µM
[5]; [9]
  EC50: > 10 µM
[5]; [10]
  IC50: > 10 µM
[5]; [11]
  IC50: > 10 µM
[6]
  IC50: 1 to 10 µM
[7]; [9]
  EC50: > 10 µM
[7]; [12]
  IC50: > 10 µM
[7]; [13]
  IC50: > 10 µM

## Cn1cc2cc(-c3nc4sc(N5CCC56CCNCC6)cc4s3)cc(F)c2n1 [Compound 201, 1-[2-(7-fluoro-2-methylindazol-5-yl)thieno[2,3-d][1,3]thiazol-5-yl]-1,7-diazaspiro[3.5]nonane]
[3]
  IC50: > 10 µM
[5]; [9]
  EC50: > 10 µM
[5]; [10]
  IC50: > 10 µM
[5]; [11]
  IC50: > 10 µM
[6]
  IC50: > 10 µM
[7]; [9]
  EC50: > 10 µM
[7]; [12]
  IC50: > 10 µM
[7]; [13]
  IC50: > 10 µM

## Cc1cc(-c2cc3cn([C@@H]4CCNC[C@@H]4F)nc3s2)cc2cn(C)nc12 (single isomer, unassigned) [Compound 244]
[3]
  IC50: 0.1 to 1 µM
[5]; [9]
  EC50: 0.1 to 1 µM
[5]; [10]
  IC50: 0.1 to 1 µM
[5]; [11]
  IC50: 0.1 to 1 µM
[6]
  IC50: < 0.1 µM
[7]; [9]
  EC50: 1 to 10 µM
[7]; [12]
  IC50: 0.1 to 1 µM
[7]; [13]
  IC50: 0.1 to 1 µM

## Cn1cc2c(F)cc(-c3nc4sc(C5CCNCC5)cc4s3)cc2n1 [Compound 131, 4-fluoro-2-methyl-6-[5-(piperidin-4-yl)thieno[2,3-d][1,3]thiazol-2-yl]indazole]
[3]
  IC50: 1 to 10 µM
[5]; [9]
  EC50: 1 to 10 µM
[5]; [10]
  IC50: 1 to 10 µM
[5]; [11]
  IC50: 1 to 10 µM
[6]
  IC50: 1 to 10 µM
[7]; [9]
  EC50: 1 to 10 µM
[7]; [12]
  IC50: 1 to 10 µM
[7]; [13]
  IC50: 1 to 10 µM

## Cn1cc2c(O)c(-c3nc4sc(C5CCNCC5)cc4s3)ccc2n1 [Compound 231, 2-methyl-5-[5-(piperidin-4-yl)thieno[2,3-d][1,3]thiazol-2-yl]indazol-4-ol]
[3]
  IC50: > 10 µM
[5]; [9]
  EC50: 1 to 10 µM
[5]; [10]
  IC50: 1 to 10 µM
[5]; [11]
  IC50: 1 to 10 µM
[6]
  IC50: 0.1 to 1 µM
[7]; [9]
  EC50: 1 to 10 µM
[7]; [12]
  IC50: > 10 µM
[7]; [13]
  IC50: 1 to 10 µM

## Cc1cn2nc(-c3nc4sc(C5=CCNCC5)cc4s3)cc(C)c2n1 [Compound 198, 4-(2-{2,8-dimethylimidazo[1,2-b]pyridazin-6-yl}thieno[2,3-d][1,3]thiazol-5-yl)-1,2,3,6-tetrahydropyridine]
[3]
  IC50: 1 to 10 µM
[5]; [9]
  EC50: 0.1 to 1 µM
[5]; [10]
  IC50: < 0.1 µM
[5]; [11]
  IC50: 0.1 to 1 µM
[6]
  IC50: < 0.1 µM
[7]; [9]
  EC50: 0.1 to 1 µM
[7]; [12]
  IC50: 0.1 to 1 µM
[7]; [13]
  IC50: 0.1 to 1 µM
